According to patent EP1101492A1, “NOVEL REMEDIES FOR ALLERGIC DISEASES” (FUJI YAKUHIN KOGYO KABUSHIKI KAISHA, priority 1998, dated 2000):

Columns and labels:
[1] = test system: guinea pig experimental bronchial asthma models; test: Experimental bronchial asthma model (ovalbumin inhalation): airway resistance and asthmatic death;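 further: female Std:Hartley guinea pigs sensitized by inhaling nebulized ovalbumin once daily for 8 consecutive days, 8 to 11 animals per group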
Procedure: Guinea pigs (female, Std:Hartley, 3 weeks old, 200 to 250 g) were individually housed in a plastic chamber (width, 200 mm; depth, 300 mm; height, 167 mm). Aqueous ovalbumin (10 mg/mL) was administered to the guinea pigs once a day for sensitization by 10 min. inhalation with a nebulizer (5B, Nippon Shoji K.K.: flow rate, 6 L/min.) at a dose of 10 mg/mL during 8 cosecutive days. On Day 7 after the final sensitization, the guinea pigs were housed in a plastic chamber and inhaled using a nebulizer with a solution of ovalbumin (10 mg/mL) in physiological saline for 1 min. for elicitation (Matsumoto, T., et al., The Journal of Pharmacology and Experimental Therapeutics, 269: 1236-1244, 1994). The number of animals employed in the experiment was set to the extent there are at least 6 as individuals escaping asthmatic death. A solution of a test compound (Compound No. 130, 15 mg/kg) in water for injection was administered subcutaneously twice, i.e., 24 hours and 2 hours prior to elicitation. Similarly, the solvent alone was also administered to a negative control group. A suspension of prednisolone (10 mg/kg) in 0.5% aqueous methyl cellulose was administered orally twice, i.e., 24 hours and 2 hours prior to elicitation. Similarly, the solvent alone was also administered to another control group.
The evaluation for efficacies was conducted in terms of airway resistance. For this purpose, an apparatus dedicated to the measurement of airway resistance (K.K. Medical Agent) was employed. Measurement includes setting a guinea pig in a test chamber under a not-anesthetized condition, applying sinusoidal pressure waves of 30 Hz components to a part below the neck of the animal from the back side of the chamber, measuring respiratory waves of 30 Hz components leaking through the mouth (volume of 30 Hz air flow passing through the respiratory tract) in front of the neck, and calculating airway resistance mechanically. Measurement was carried out immediately prior to the first drug treatment (24 hours before elicitation), just prior to elicitation, 10 minutes, 1, 2, 4, 6, and 8 hours post-elicitation.
It was visually observed by a person carrying out said test in terms, of the appearance of cyanosis or suffocative death (asthmatic death) due to respiratory obstruction.
Guinea pigs were sensitized with ovalbumin and asthma was induced on Day 7 after final sensitization in the same manner as in Example 20. The number of animals employed in the experiment was set to the extent there are at least 6 as individuals escaping asthmatic death (8 to 11 animals/group). In the same manner as in Example 20, the animals were measured for airway resistance mechanically and each percent change (%) in airway resistance was calculated (each value just prior to elicitation was set as 100%). Each percent amelioration in airway resistance was calculated from the percent changes in airway resistance according to the following formula: Amelioration in Airway Resistance (%) = 1 -[((Percent Change in Airway Resistance after Drug-Administration) - (Value just prior to Challenge (100)))/((Percent Change in Airway Resistance after Solvent-Administration) - (Value just prior to Challenge (100)))]× 100 [formula]

[2] = test system: allergic inflammation models (air pouch models); test: Allergic inflammation model (air pouch model): leukocyte infiltration; format: in vivo, rats; settings: 10 mg/kg or 30 mg/kg, into the air pouch at the second challenge or systemically 30 minutes prior; exudate 8 hours after second challenge; dexamethasone 0.1 mg/kg as comparison
Procedure: Compound No. 130 was dissolved in physiological saline to make the final concentration 2.5 mg/mL (equal to 10 mg/kg) or 7.5 mg/mL (equal to 30 mg/kg) and administered into an air pouch of animals or intraperitoneally at a dose of 4 mL/kg. Dexamethasone was also dissolved in physiological saline to make the final concentration 25 µg/mL (equal to 0.1 mg/kg) and administered into an air pouch of animals at a dose of 4 mL/kg. Administration into such an air pouch was conducted simultaneously with the second challenge while the intraperitoneal administration was 30 minutes prior to the second challenge. Acetylated bovine serum albumin diazo-coupled with arsanilic acid (ABA-AcBSA) was prepared according to the Ouchi et al. and Tabachnick et al. methods as disclosed in Ouchi et al., "Seibutsu Yakukagaku Jikken Koza, Ensho To Allergy (Inflammation and Allergy) I-2", pp.194 to 206, Hirokawa Publishing Co., Japan and Tabachnick et al., The Journal of Biological Chemistry, 234: 1726- 1730, 1959, and mixed with a Freund's complete adjuvant (Difco) at an equal ratio. The mixture was treated using a connection-type glass syringe to form an emulsion which was used as a sensitizing solution. […] The retrieved exudates were measured by a dye-exclusion method using a haematocytometer and the number of exudated leukocytes were counted.

[3] = Body weight gain in sensitized mice; format: in vivo; settings: test compound 50 µg/ear/dose, prednisolone 5 µg/ear/dose, in ethanol painted twice a day, Days 1, 4 and 7, vs solvent control (ethanol)
Procedure: Experimental atopic dermatitis model mice sensitized in the same manner as in Example 1 were examined for influence on body weight gains.
Each mouse was measured for its body weight not only immediately before the start in painting but also on Days 1, 4 and 7 after the start in painting. Each gain in body weight was calculated and considered to indicate an effect on body weight changes affected by said treatments.

[4] = test system: mouse contact-type (type IV) dermatitis models; test: Type IV allergic dermatitis (oxazolone-induced auricle edema); format: in vivo, Balb/c mice; settings: 50 mg/mL in ethanol
Procedure: Mice (male, Balb/c, 6 weeks old, 20 to 25 g) were sensitized by painting a 3% solution of oxazolone (100 µL) abdominally. Six days after sensitization, a 0.5% solution of oxazolone in acetone was painted on both sides of a right ear at a dose of 10 µL to raise auricle edema. An untreated group was painted with the solvent (acetone) alone onto both sides of a left ear of the same mouse at 10 µL. At 24 hours after edema-induction, each mouse was sacrificed with ether and an equivalent each of right and left auricles was stamped out with a puncher (diameter: 6 mm). Both left and right auricle sections were measure for their weight and each percent edema was calculated (Kazuo Ouchi (Ed.), "Seibutsu Yakukagaku Jikken Koza, Ensho To Allergy (Inflammation and Allergy) I-1", 1993, Hirokawa Publishing Co., Japan) Percent Edema (%) =((Right Auricular Segment Weight - Left Auricular Segment Weight))/(Left Auricular Segment Weight)× 100 [formula]
The solvent (ethanol) alone was painted on a left auricle at the same dose (treated group). Unsensitized mice were also treated for induction similarly and then treated with the compound of the present invention, only followed by examination for the potency of the compound of the present invention on auricles (unsensitized group). The number of animals used in the test was set 4 per group. […]

[5] = asthmatic death due to cyanosis within several minutes after elicitation, Compound No. 130 15 mg/kg s.c., prednisolone 10 mg/kg orally, 24 and 2 hours prior to elicitation

CNC(=O)[C@H](Cc1ccc(NC(=N)N)cc1)NC(=O)[C@H](CC(C)C)C(CCCc1ccccc1)C(=O)NO (single isomer, unassigned) [Compound No. 130, N-[4-(N-Hydroxyamino)-2(R)-isobutyl-3(R or S)-(3-phenyltrimethylene)succinyl)-L-4'-guanidophenylalanine-N-methylamide 1 acetate]
airway resistance (FIG. 12) ([1]; 15 mg/kg s.c. 24 hours and 2 hours prior to elicitation, IAR 1 hour, LAR 6 hours post-elicitation): significant reduction of the increased airway resistance | % Mortality [1, 5]: 0.0% | (Dead Animals)/(Tested Animals) [1, 5]: 0/10 | infiltration of leukocytes into an air pouch (FIG. 14) [2]: significantly inhibited | gain in body weight (FIG. 10) [3]: almost equivalent to that in the solvent control group | development of auricle edemas (FIG. 13) ([4]; 10 µL per side painted on right auricle 0.5 hr prior to and 6 hours after edema-induction, 24 hours after induction): amelioration of auricle edemas | effect of the compound alone on auricles (FIG. 13) ([4]; unsensitized mice, 10 µL per side painted twice): almost free of swelling and/or thinning
